Measurements reported in PMC3960075 (ACS chemical biology, 2012).
Entries after “also recorded” stand apart in the source; their conditions may differ.

Columns and labels:
in vitro = conditions: dog
influenza A/PR/8/34 = test: microbe, parasite or virus in culture; type: cell-based, avian H1N1 influenza A virus (A/PuertoRico/8/34); conditions: for IC50: Influenza A virus, PR/8, MDCK, read-out: IC50, viral plaque inhibition
[1] = target: T1, PAN endonuclease (influenza virus PA N-terminal domain) (Influenza A virus, UniProt Q5EP34); type: binding
immunoglobulin G (IgG) = test: Direct binding FP specificity control with IgG; conditions: IgG 2-fold serial dilutions from 100 μM, 4 at 60 nM
[2] = target: T1, PAN endonuclease (influenza virus PA N-terminal domain); type: binding; remark: listed apart in the source

SMILES: C[C@@H](NC(=O)c1nc(-c2cnccn2)[nH]c(=O)c1O)c1ccccc1 [Compound 45]
- CC50 (in vitro): > 60 µM
- IC50 (influenza A/PR/8/34): 12.68 ± 0.08 µM

SMILES: O=C(O)/C(O)=C/C(=O)c1cccnc1 [Compound 13]
- FP competitive binding, result in words [1]: inactive

SMILES: O=C(O)CCC(=O)c1ccccc1 [Compound 19]
- FP competitive binding, result in words [1]: no inhibition; also recorded: inactive

SMILES: CCC(CC)O[C@@H]1C=C(C(=O)O)C[C@H](N)[C@H]1NC(C)=O [oseltamivir carboxylate, reference compound]
- inhibition of viral plaque formation (influenza A/PR/8/34): 100%

SMILES: O=C(NCCc1ccccc1)c1nc(-c2cnccn2)[nH]c(=O)c1O [Compound 43]
- Inhibition of viral plaque formation, result in words (influenza A/PR/8/34): inactive
- IC50 (influenza A/PR/8/34): > 100 µM

SMILES: CC(C)(C)OC(=O)/C(O)=C/C(=O)c1ccccc1 [Compound 17]
- FP competitive binding, result in words [1]: inactivity

SMILES: CC(NC(=O)c1nc(-c2cnccn2)[nH]c(=O)c1O)c1ccccc1 (centres unmarked) [Compound 42]
- CC50 (in vitro): > 60 µM
- IC50 (influenza A/PR/8/34): 14.28 ± 0.07 µM

SMILES: O=C(O)/C(O)=C/C(=O)C1(Cc2ccc(Cl)cc2)CCN(Cc2ccccc2)CC1 [Compound 2, reference compound]
- IC50 (influenza A/PR/8/34): 3.13 ± 0.08 µM
- inhibition (displacement of 4 from PAN) ([1]; 250 µM): 100%

SMILES: C[C@H](NC(=O)c1nc(-c2cnccn2)[nH]c(=O)c1O)c1ccccc1 [Compound 44]
- CC50 (in vitro): > 60 µM
- IC50 (influenza A/PR/8/34): 18.61 ± 0.09 µM

SMILES: O=C(O)c1nc(-c2cnccn2)nc(O)c1O [Compound 31]
- IC50 (influenza A/PR/8/34): > 50 µM

SMILES: O=C(O)C(=O)C1=C(O)c2ccccc2OC1 [Compound 14]
- FP competitive binding, result in words [1]: inactive

SMILES: O=C(O)/C=C/C(=O)c1ccccc1 [Compound 18]
- FP competitive binding, result in words [1]: inactive

SMILES: O=C(O)/C(O)=C/C(=O)C1(Cc2ccc(Cl)cc2)CCN(C(=O)c2ccc(-c3c4ccc(=O)cc-4oc4cc(O)ccc34)c(C(=O)O)c2)CC1 [Compound 4]
- Non-specific binding to IgG (immunoglobulin G (IgG)): not observed
- dynamic range [2]: 124.3 ± 0.9 mP

SMILES: COC(=O)/C(O)=C/C(=O)c1ccccc1 [Compound 16, reference compound]
- Inhibition of viral plaque formation, result in words (influenza A/PR/8/34): inactive
- IC50 (influenza A/PR/8/34): > 100 µM
- FP competitive binding, result in words [1]: inactivity

SMILES: COc1ccc2c(c1)CC(C(=O)C(=O)O)=C2O [Compound 15]
- FP competitive binding, result in words [1]: inactive
